Reference: patent US11572366B2, “Heterocyclic compounds as immunomodulators” (Incyte Corporation, priority 2015, dated 2023)

Target: PD-1/PD-L1 protein/protein interaction (Homo sapiens (Human), UniProt Q9NZQ7)
Experiment: PD-1/PD-L1 Homogeneous Time-Resolved Fluorescence (HTRF) binding assay
Conditions: recombinant human PD-L1 (19-238) His-tag 10 nM, human PD-1 (25-167) Fc tag 3 nM, 25° C., PBS pH 7.4
Procedure: Example A. PD-1/PD-L Homogeneous Time-Resolved Fluorescence (HTRF) Binding Assay
The assays were conducted in a standard black 384-well polystyrene plate with a final volume of 20 μL. Inhibitors were first serially diluted in DMSO and then added to the plate wells before the addition of other reaction components. The final concentration of DMSO in the assay was 1%. The assays were carried out at 25° C. in the PBS buffer (pH 7.4) with 0.05% Tween-20 and 0.1% BSA. Recombinant human PD-L1 protein (19-238) with a His-tag at the C-terminus was purchased from AcroBiosystems (PD1-H5229). Recombinant human PD-1 protein (25-167) with Fc tag at the C-terminus was also purchased from AcroBiosystems (PD1-H5257). PD-L1 and PD-1 proteins were diluted in the assay buffer and 10 μL was added to the plate well. Plates were centrifuged and proteins were preincubated with inhibitors for 40 minutes. The incubation was followed by the addition of 10 μL of HTRF detection buffer supplemented with Europium cryptate-labeled anti-human IgG (PerkinElmer-AD0212) specific for Fe and anti-His antibody conjugated to SureLight®-Allophycocyanin (APC, PerkinElmer-AD0059H). After centrifugation, the plate was incubated at 25° C. for 60 min. before reading on a PHERAstar FS plate reader (665 nm/620 nm ratio). Final concentrations in the assay were—3 nM PD1, 10 nM PD-L1, 1 nM europium anti-human IgG and 20 nM anti-His-Allophycocyanin.IC50 determination was performed by fitting the curve of percent control activity versus the log of the inhibitor concentration using the GraphPad Prism 5.0 software.

PD-1/PD-L1 protein/protein interaction, sequence (Q9NZQ7 19-238): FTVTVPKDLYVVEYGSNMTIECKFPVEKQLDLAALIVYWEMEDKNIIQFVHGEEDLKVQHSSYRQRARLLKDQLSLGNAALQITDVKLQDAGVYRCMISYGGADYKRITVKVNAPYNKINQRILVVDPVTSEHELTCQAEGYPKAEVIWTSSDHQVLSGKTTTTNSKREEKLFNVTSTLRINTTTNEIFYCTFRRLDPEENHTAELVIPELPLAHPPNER

SMILES	IC50
N#CCOc1cc2oc(-c3cccc(-c4ccc5c(c4)OCCO5)c3C#N)nc2cc1CN1CCCC[C@H]1C(=O)O [Example 37, (2S)-1-{[2-[2-cyano-3-(2,3-dihydro-1,4-benzodioxin-6-yl)phenyl]-6-(cyanomethoxy)-1,3-benzoxazol-5-yl]methyl}piperidine-2-carboxylic Acid]	10 to 100 nM
Cc1c(-c2nc3cc(CNCCO)c(OCC#N)cc3o2)cccc1-c1ccccc1F [Example 39, [(2-(2′-fluoro-2-methylbiphenyl-3-yl)-5-{[(2-hydroxyethyl)amino]methyl}-1,3-benzoxazol-6-yl)oxy]acetonitrile]	≤ 10 nM
Cc1c(C2=CCCCC2)cccc1-c1nc2cc(CNCCO)c(OCC#N)cc2o1 [Example 40, [(2-(3-cyclohex-1-en-1-yl-2-methylphenyl)-5-{[(2-hydroxyethyl)amino]methyl}-1,3-benzoxazol-6-yl)oxy]acetonitrile]	10 to 100 nM

Other lines, results leading:

IC50	SMILES
10 to 100 nM	Cc1c(-c2ccc3c(c2)OCCO3)ccnc1-c1nc2cc(CN3CCCC[C@H]3C(=O)O)c(OCC#N)cc2o1 [Example 35, (2S)-1-({6-(cyanomethoxy)-2-[4-(2,3-dihydro-1,4-benzodioxin-6-yl)-3-methylpyridin-2-yl]-1,3-benzoxazol-5-yl}methyl)piperidine-2-carboxylic Acid]
≤ 10 nM	Cc1c(-c2ccc3c(c2)OCCO3)cccc1-c1nc2cc(CN3CCCC[C@H]3C(=O)O)c(OCC#N)cc2o1 [Example 36, (2S)-1-({6-(cyanomethoxy)-2-[3-(2,3-dihydro-1,4-benzodioxin-6-yl)-2-methylphenyl]-1,3-benzoxazol-5-yl}methyl)piperidine-2-carboxylic Acid]
10 to 100 nM	Cc1c(-c2ccccc2)cccc1-c1nc2ccc(CN3CCCC[C@H]3C(=O)O)cc2o1 [Example 38, (2S)-1-{[2-(2-methylbiphenyl-3-yl)-1,3-benzoxazol-6-yl]methyl}piperidine-2-carboxylic Acid]
